According to patent US20250042857A1, “SOS1 Inhibitor With Pyrido-Fused Six-Membered Ring Structure” (HAIHE BIOPHARMA CO., LTD., priority 2021, published 2025):
pIC50: −log10 of the molar value. Read-outs that look alike come from different tables or passages of the source.

What was measured:
KRAS-G12C/SOS1 = KRAS-G12C/SOS1 (Homo sapiens (Human), UniProt Q07889); assay: Detection of inhibitory effects of compounds on KRAS-G12C/SOS1 (KRASG12C/SOS binding kit, HTRF); conditions: Em665/620, read-out: IC50, inhibitory activity on interaction of KRAS-G12C/SOS1
Outline: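 HTRF binding of Tag2-KRAS-G12C to Tag1-SOS1 with compounds (10-point 3-fold dilution from 5,000 nM) for 15 min at room temperature, then anti-Tag1-Tb and anti-Tag2-XL665 for 120 min at 4° C. Em665/620 read; inhibition normalised to control wells, IC50 from variable-slope log(inhibitor) fit.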

p-ERK of PC-9 cells = assay: p-ERK HTRF assay in PC-9 cells; assay type: cell-based; conditions: PC-9 lung cancer cells, 1 hour treatment, read-out: IC50, inhibitory activity on p-ERK of PC-9 cells
Experimental: IC50 Values of Compounds Determined by p-ERK HTRF Assay in PC-9 Cells
Experimental objective: an inhibitory effect of the test compounds on the phosphorylation of PC-9ERK of lung cancer cells at a cellular level was evaluated by detecting the phosphorylation of ERK.
• PRMI 1640 medium (Invitrogen-11875093) • 0.25% pancreatin (Invitrogen-25200056) • Phosphoric acid buffer salt solution (PBS, pH 7.4) (Invitrogen-10010023) • Double-antibody (PS) (Invitrogen-15140122) • Fetal bovine serum (FBS) (Gibco-10091148) • Trypan blue (Gibco-15250061) • 10-cm culture dish (Corning-430167) • 10-mL pipette (Costar-4488) • Pipettor (Sartorius-17009031) • 15-mL centrifuge tube (Corning-430052) • 50-mL centrifuge tube (Corning-430829) • Cryotube (Thermo-377267) • 1.5-mL EP tube (Axygen-MCT-150-C-S) • Cell incubator (Thermo-371) • Microscope (Olympus-CKX41) • Centrifuge (Flying Pigeon-TDL-80-2B) • Cell counter (Countstar-IC-1000) • Envision (Perkin Elmer) • Spark 10M (TECAN) • Phospho-ERK1/2 (Thr202/Tyr204) Experimental kit (Cisbio, Cat. No. 64AERPEG) • PC-9 cells: RPMI1640+10% FBS+1% PS
• 1) PBS, 0.25% pancreatin, and a cell culture medium were placed in a water-bath kettle at 37° C. for preheating; • 2) cells were observed under a microscope, a fusion degree was evaluated, and no bacterial and fungi pollution was confirmed; • 3) a culture solution was removed, the cells were washed with 5 mL of PBS and digested with 2 mL of the 0.25% trypsin, the digestion was terminated with 10 mL of the fresh cell culture medium, a culture dish was rinsed, and the cells were transferred to a 15-mL centrifuge tube; • 4) the collected cells were centrifuged at 1,000 rpm for 5 minutes; • 5) after the centrifugation, the supernatant was discarded, the cells were resuspended in 5 mL of the cell culture medium, 20 μL of the resuspended cells were aspirated, and the number and viability of viable cells were recorded; • 6) the cell culture medium was used and the cell density was adjusted (PC-9:10,000 cells/well, and 45 μL per well); • 7) in a 384-well plate, 45 μL of a cell suspension per well was transferred according to an experimental design figure; and • 8) the cells were incubated overnight at 37° C. and 5% CO2.
• 1) The compounds were diluted from the stock concentration to 10 mM with 100% DMSO (Trametinib was diluted to 1 mM), then 3-fold diluted into 10 points (5 μL of the diluted compounds with the concentration of 10 mM were transferred to 10 μL of the DMSO in an LDV plate), and centrifuged at 1,000 rpm/min for 1 minute; • 2) 5 μL of the diluted compounds of step 1) were transferred to an inter plate 1 containing 45 μL of the cell culture medium (the compounds were diluted from 1,000× to 100×); • 3) 5 μL of the diluted compounds of step 2) were transferred to an inter plate 2 containing 45 μL of the cell culture medium (the compounds were diluted from 100× to 10×); • 4) 5 μL of the compounds were pipetted from the inter plate 2 into a cell culture plate (the compounds were diluted from 10 folds to 1 fold), the final concentrations of the test compounds were 10,000 nM, 3333.33 nM, 1111.11 nM, 370.37 nM, 123.46 nM, 41.15 nM, 13.72 nM, 4.57 nM, 1.52 nM, and […], the solution was centrifuged at 1,000 rpm/min for 1 minute, and the final content of the DMSO was 0.1%; and • 5) the cells were treated in an incubator at 37° C. for 1 hour. […]

KRAS-G12C/SOS1, sequence (Q07889 whole entry, stated change not applied): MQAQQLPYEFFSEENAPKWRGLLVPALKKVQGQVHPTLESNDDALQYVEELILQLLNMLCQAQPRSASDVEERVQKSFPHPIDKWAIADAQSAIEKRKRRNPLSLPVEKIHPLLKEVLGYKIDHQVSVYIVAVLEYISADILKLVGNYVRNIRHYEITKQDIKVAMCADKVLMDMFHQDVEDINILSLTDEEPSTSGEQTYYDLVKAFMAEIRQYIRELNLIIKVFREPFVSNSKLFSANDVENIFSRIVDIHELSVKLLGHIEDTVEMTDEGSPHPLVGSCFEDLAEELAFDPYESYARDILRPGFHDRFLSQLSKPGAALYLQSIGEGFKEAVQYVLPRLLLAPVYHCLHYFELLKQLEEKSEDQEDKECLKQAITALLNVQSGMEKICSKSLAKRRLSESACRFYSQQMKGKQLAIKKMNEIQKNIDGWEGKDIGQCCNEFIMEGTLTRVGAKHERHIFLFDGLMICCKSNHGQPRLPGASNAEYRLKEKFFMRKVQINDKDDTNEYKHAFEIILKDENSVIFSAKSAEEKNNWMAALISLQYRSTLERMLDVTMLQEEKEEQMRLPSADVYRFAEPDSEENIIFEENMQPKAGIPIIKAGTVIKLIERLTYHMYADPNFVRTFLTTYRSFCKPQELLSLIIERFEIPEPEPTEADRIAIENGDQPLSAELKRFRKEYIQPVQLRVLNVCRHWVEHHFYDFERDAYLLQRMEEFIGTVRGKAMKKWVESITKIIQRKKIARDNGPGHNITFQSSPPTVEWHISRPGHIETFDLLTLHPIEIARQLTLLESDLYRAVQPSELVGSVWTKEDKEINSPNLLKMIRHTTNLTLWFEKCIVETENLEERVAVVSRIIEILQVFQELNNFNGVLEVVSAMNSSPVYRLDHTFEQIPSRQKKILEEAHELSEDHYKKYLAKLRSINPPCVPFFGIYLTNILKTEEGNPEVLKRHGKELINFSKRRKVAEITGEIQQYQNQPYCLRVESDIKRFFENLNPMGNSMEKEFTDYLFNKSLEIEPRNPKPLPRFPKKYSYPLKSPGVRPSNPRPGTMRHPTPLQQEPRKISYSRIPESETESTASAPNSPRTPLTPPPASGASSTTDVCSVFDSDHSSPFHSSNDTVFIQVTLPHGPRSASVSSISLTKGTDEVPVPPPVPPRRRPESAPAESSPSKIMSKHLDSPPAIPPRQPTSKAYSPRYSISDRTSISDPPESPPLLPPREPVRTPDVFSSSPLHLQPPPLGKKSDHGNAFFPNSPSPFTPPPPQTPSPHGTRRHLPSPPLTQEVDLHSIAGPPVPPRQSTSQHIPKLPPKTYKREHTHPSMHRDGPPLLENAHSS

| Structure (SMILES) | pIC50 (KRAS-G12C/SOS1) | pIC50 (p-ERK of PC-9 cells) | pIC50 (p-ERK of PC-9 cells; Homo sapiens, PC-9, 1 h) |
| --- | --- | --- | --- |
| COc1nc(C2(O)CCC(O)CC2)cc2c(N[C@H](C)c3cccc(C(F)F)c3F)ccnc12 (single isomer, unassigned) [Compound B-178-P2] | ≥ 7.00 | ≥ 6.52 |  |
| C[C@@H](Nc1ccnc2cnc(C3(O)CCN(C(=O)CN4CC[C@H](O)C4)CC3)cc12)c1cccc(C(F)F)c1F [Compound B-151] | ≥ 7.00 |  | < 6.00 |
| C[C@@H](Nc1ccnc2cnc(C3(O)CCN(C(=O)Cc4cccnc4)CC3)cc12)c1cccc(C(F)F)c1F [Compound B-138] | ≥ 7.00 |  | ≥ 6.52 |
| C[C@@H](Nc1ccnc2cnc(N3CCCS3(=O)=O)cc12)c1cccc(C(F)F)c1F [Compound B-52] | ≥ 7.00 |  | ≥ 6.52 |
| C[C@@H](Nc1ccnc2cnc(C3(O)CCN(C(=O)CN4CCC(O)CC4)CC3)cc12)c1cccc(C(F)F)c1F [Compound B-149] | ≥ 7.00 |  | < 6.00 |
| COC[C@@H]1CN(C(C)=O)CCN1c1cc2c(N[C@H](C)c3cccc(C(F)F)c3F)ccnc2cn1 [Compound B-48] | ≥ 7.00 |  | ≥ 6.52 |
| CC(=O)N1CCN(c2cc3c(N[C@H](C)c4cccc(C(F)F)c4F)ccnc3cn2)[C@@H](CC#N)C1 [Compound B-56] | ≥ 7.00 |  | ≥ 6.52 |
| C[C@@H](Nc1ccnc2cnc(C3(O)CCC(O)CC3)cc12)c1cccc(C(C)(F)F)c1F (single isomer, unassigned) [Compound B-87-P2] | 6.30 to 7.00 | < 6.00 |  |
| C[C@@H](Nc1ccnc2cnc(N3CCS(=O)(=O)CC3)cc12)c1cccc(C(F)F)c1F [Compound B-38] | ≥ 7.00 |  | ≥ 6.52 |
| C[C@@H](Nc1ccnc2cnc(C3(O)CCN(C(=O)c4ccccn4)CC3)cc12)c1cccc(C(F)F)c1F [Compound B-129] | ≥ 7.00 |  | 6.00 to 6.52 |
| C[C@@H](Nc1ccnc2cnc(C3(O)CCN(C(=O)[C@H]4C[C@@H](O)CN4C)CC3)cc12)c1cccc(C(F)F)c1F [Compound B-147] | ≥ 7.00 |  | < 6.00 |
| C[C@H](O)C(=O)N1CCC(O)(c2cc3c(N[C@H](C)c4cccc(C(C)(F)F)c4F)ccnc3cn2)CC1 [Compound B-125] | ≥ 7.00 |  | ≥ 6.52 |
| Cc1nc(C2(O)CCC(O)CC2)cc2c(N[C@H](C)c3cccc(C(F)F)c3F)ccnc12 (stereo partly shown) [Compound B-70] | ≥ 7.00 |  | 6.00 to 6.52 |
| C[C@@H](Nc1ccnc2cnc(C3(O)CCC(O)CC3)cc12)c1cccc(C(C)(F)F)c1F (single isomer, unassigned) [Compound B-87-P1] | 6.30 to 7.00 |  | < 6.00 |
| C[C@H](O)C(=O)N1CCC(O)(c2cc3c(N[C@H](C)c4cccc(C(F)F)c4F)ccnc3cn2)CC1 [Compound B-119] | ≥ 7.00 |  | ≥ 6.52 |
| C[C@@H](Nc1ccnc2cnc(C3(O)CCC(O)CC3)cc12)c1cccc(C(F)(F)F)c1F (single isomer, unassigned) [Compound B-85-P2] | ≥ 7.00 | ≥ 6.52 |  |
| C[C@H](O)C(=O)N1CCC(O)(c2cc3c(N[C@H](C)c4cccc(C(F)F)c4F)ccnc3c(-c3cnn(C)c3)n2)CC1 [Compound B-172] | 6.30 to 7.00 |  | 6.00 to 6.52 |
| C[C@@H](Nc1ccnc2cnc(C3(O)CCN(C(=O)[C@H]4C[C@H](O)CN4)CC3)cc12)c1cccc(C(F)F)c1F [Compound B-144] | ≥ 7.00 |  | < 6.00 |

| Structure (SMILES) | pIC50 (KRAS-G12C/SOS1) | pIC50 (p-ERK of PC-9 cells) | pIC50 (p-ERK of PC-9 cells; Homo sapiens, PC-9, 1 h) |
| --- | --- | --- | --- |
| CC(=O)N1CCN(c2cc3c(N[C@H](C)c4cccc(C(F)F)c4F)ccnc3cn2)[C@H](CO)C1 [Compound B-47] | ≥ 7.00 |  | ≥ 6.52 |
| COc1nc(C2(O)CCC(O)CC2)cc2c(N[C@H](C)c3cccc(C(F)F)c3F)ccnc12 (single isomer, unassigned) [Compound B-178-P1] | ≥ 7.00 | < 6.00 |  |
| C[C@@H](Nc1ccnc2cnc(C3(O)CCN(CCO)CC3)cc12)c1cccc(C#N)c1F [Compound B-168] | 6.30 to 7.00 |  | < 6.00 |
| CC(=O)N1CCN(c2cc3c(N[C@H](C)c4cccc(C(F)F)c4F)ccnc3cn2)CC1 [Compound B-23] | ≥ 7.00 |  | ≥ 6.52 |
| C[C@@H](Nc1ccnc2cnc(N3CCC(O)CC3)cc12)c1cccc(C(F)F)c1F [Compound B-24] | ≥ 7.00 |  | ≥ 6.52 |
| CC(=O)N1CC=C(c2cc3c(N[C@H](C)c4cccc(C(F)F)c4F)ccnc3cn2)CC1 [Compound B-3] | ≥ 7.00 |  | ≥ 6.52 |
| CC(=O)N1CCN(c2cc3c(N[C@H](C)c4cccc(C(F)F)c4F)ccnc3cn2)CC1CO (stereo partly shown) [Compound B-44] | ≥ 7.00 |  | ≥ 6.52 |
| C[C@@H](Nc1ccnc2cnc(N3C[C@H](O)C[C@H]3CO)cc12)c1cccc(C(F)F)c1F [Compound B-78] | ≥ 7.00 |  | ≥ 6.52 |
| CC(=O)NC1CCN(c2cc3c(N[C@H](C)c4cccc(C(F)F)c4F)ccnc3cn2)CC1 [Compound B-37] | ≥ 7.00 |  | < 6.00 |
| C[C@@H](Nc1ccnc2cnc(C3(O)CCN(C(=O)CO)CC3)cc12)c1cccc(C#N)c1F [Compound B-167] | ≥ 7.00 |  | < 6.00 |
| Cc1nc(N2CCCCS2(=O)=O)cc2c(N[C@H](C)c3cccc(C(F)F)c3F)ccnc12 [Compound B-65] | ≥ 7.00 |  | 6.00 to 6.52 |
| C[C@@H](Nc1ccnc2cnc(C3(O)CCN(C(=O)[C@@H]4CNCCO4)CC3)cc12)c1cccc(C(F)F)c1F [Compound B-137] | ≥ 7.00 |  | < 6.00 |
| CC(=O)N1CCC(O)(c2cc3c(N[C@H](C)c4cccc(C(F)F)c4F)ccnc3cn2)CC1 [Compound B-17] | ≥ 7.00 |  | ≥ 6.52 |
| C[C@@H](Nc1ccnc2cnc(C3(O)CCN(C(=O)c4ccncc4)CC3)cc12)c1cccc(C(F)F)c1F [Compound B-131] | ≥ 7.00 |  | ≥ 6.52 |
| C[C@@H](Nc1ccnc2cnc(C3(O)CCN(C(=O)C4(C#N)CC4)CC3)cc12)c1cccc(C(F)F)c1F [Compound B-127] | ≥ 7.00 |  | ≥ 6.52 |
| Cc1nc(C2(O)CCN(C(=O)[C@H](C)O)CC2)cc2c(N[C@H](C)c3cccc(C(F)F)c3F)ccnc12 [Compound B-176] | ≥ 7.00 |  | 6.00 to 6.52 |
| CC(=O)N1CCC(O)(c2cc3c(N[C@H](C)c4cccc(C(F)F)c4F)ccnc3c(C)n2)CC1 [Compound B-68] | ≥ 7.00 |  | < 6.00 |
